What all share (assay type): cell-based
In data set [1] the target is T1, hERG channel (Homo sapiens, UniProt Q12809).
T1 construct: expressed in transfected cells; host or cells: HEK293T
The note with it: 1 μM peptide; whole-cell patch clamp, HEK293T; mean ± S.E., n ≥ 3; SEM. The procedure:
(§1) To investigate the electrophysiological activities of BmK86-P1, the whole-cell patch clamp technique was applied to test the effects of BmK86-P1 on multiple potassium channels. The hKv1.1, hKv1.2, hKv1.3, hKv1.6, hKv3.2, mKv4.1, rKv4.2, rKv4.3 and hERG channels were overexpressed in HEK293T cells, then the inhibitory effects of BmK86-P1 at 1 μM on these potassium channels were measured. […] To further investigate the affinity of BmK86-P1 inhibiting the hKv1.2 channel, a dose-dependent study was performed by examining the inhibitory effects of different concentrations of BmK86-P1.
(§2) All potassium channel expression vectors were given by others or constructed by ourselves. HEK293T cells were cultured in Dulbecco’s modified Eagle medium (Gibco, Pittsburgh, PA, USA) with 10% fetal bovine serum and penicillin/streptomycin (100 units/mL) in a 5% CO2 incubator at 37 °C. […] The potassium currents were recorded after transfection for 1 to 3 days.
(§3) The channel currents were measured and recorded by whole-cell patch clamp technology according to previously published references. […] The channel currents were recorded at room temperature (~25 °C) using an EPC 10 patch clamp amplifier. […]
(§4) The ClampFit (Molecular Devices, Sunnyvale, CA, USA) and SigmaPlot software ([…], Chicago, IL, USA) were used to analyze the recorded data. […]
A general note: In patch-clamp work, channel activity is measured electrically.

Data set [2] has as its target T2, hKv3.2 channel (Homo sapiens, UniProt Q96PR1).
T2 construct: expressed in transfected cells; host or cells: HEK293T
T2 sequence (Q96PR1 1-638): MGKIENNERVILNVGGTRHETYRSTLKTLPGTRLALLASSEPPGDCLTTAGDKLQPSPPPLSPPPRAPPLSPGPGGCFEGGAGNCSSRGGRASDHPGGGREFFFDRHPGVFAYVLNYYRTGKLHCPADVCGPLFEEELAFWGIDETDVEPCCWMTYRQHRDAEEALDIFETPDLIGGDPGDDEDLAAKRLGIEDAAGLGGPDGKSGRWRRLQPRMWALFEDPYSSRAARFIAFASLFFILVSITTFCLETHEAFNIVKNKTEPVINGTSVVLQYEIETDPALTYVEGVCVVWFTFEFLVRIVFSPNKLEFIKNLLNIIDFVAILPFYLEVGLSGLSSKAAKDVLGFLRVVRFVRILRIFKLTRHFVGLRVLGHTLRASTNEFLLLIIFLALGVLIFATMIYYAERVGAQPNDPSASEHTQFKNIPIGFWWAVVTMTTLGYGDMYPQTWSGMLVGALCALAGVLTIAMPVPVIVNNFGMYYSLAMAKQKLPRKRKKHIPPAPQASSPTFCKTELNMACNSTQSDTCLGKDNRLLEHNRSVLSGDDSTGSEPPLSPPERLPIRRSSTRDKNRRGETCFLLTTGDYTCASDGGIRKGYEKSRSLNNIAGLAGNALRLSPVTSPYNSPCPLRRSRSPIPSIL
Put plainly: Whole-cell patch clamp, hKv3.2 channel overexpressed in HEK293T cells. Particulars: 1 μM peptide, mean ± S.E., n ≥ 3, SEM. The procedure:
as §1, §2, §3, §4

Data set [3] deals with T3, hKv1.1 channel (Homo sapiens, UniProt Q09470).
T3 construct: expressed in transfected cells; host or cells: HEK293T
T3 sequence (Q09470 whole entry): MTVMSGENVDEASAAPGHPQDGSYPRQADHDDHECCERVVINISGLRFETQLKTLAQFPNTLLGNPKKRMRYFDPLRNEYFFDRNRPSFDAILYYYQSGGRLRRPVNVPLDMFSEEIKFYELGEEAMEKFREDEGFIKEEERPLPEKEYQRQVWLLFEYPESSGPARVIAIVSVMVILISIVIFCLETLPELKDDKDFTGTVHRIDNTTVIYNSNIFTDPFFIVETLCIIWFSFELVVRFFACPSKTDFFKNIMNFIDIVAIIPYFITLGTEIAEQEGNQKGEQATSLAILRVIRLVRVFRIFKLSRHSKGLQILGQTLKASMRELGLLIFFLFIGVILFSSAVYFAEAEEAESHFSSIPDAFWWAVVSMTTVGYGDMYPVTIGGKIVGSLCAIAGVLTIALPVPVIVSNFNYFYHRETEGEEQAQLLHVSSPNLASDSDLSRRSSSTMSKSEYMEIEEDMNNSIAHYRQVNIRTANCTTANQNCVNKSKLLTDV
Briefly: Whole-cell patch clamp, hKv1.1 channel overexpressed in HEK293T cells. Particulars: mean ± S.E., n ≥ 3, SEM. The procedure:
as §1, §2, §3, §4

Data set [4] has as its target T4, hKv1.2-R354A (Homo sapiens, UniProt P16389, R354A).
T4 construct: expressed in transfected cells; host or cells: HEK293T
Put plainly: Whole-cell patch clamp, hKv1.2 channel mutant R354A. The note with it: 100 nM peptide, HEK293T, mean ± S.E., n ≥ 3, SEM. The procedure: (§5) To determine the functional sites of the hKv1.2 channel responsible for the selectivity of BmK86-P1, six hKv1.2 mutants were obtained based on sequence differences between the pore regions of the hKv1.2 and hKv1.1 channels (Figure 4A). Then, the activities of 100 nM BmK86-P1 on these six mutant channels were tested. […] The other three mutant channels (hKv1.2-D352E, hKv1.2-R354A and hKv1.2-P359S) still kept similar sensitivities toward BmK86-P1 compared with the wild-type hKv1.2 channel (Figure 4H,I,K,N).
(§6) All potassium channel expression vectors were given by others or constructed by ourselves. HEK293T cells were cultured in Dulbecco’s modified Eagle medium (Gibco, Pittsburgh, PA, USA) with 10% fetal bovine serum and penicillin/streptomycin (100 units/mL) in a 5% CO2 incubator at 37 °C. Potassium channel expression vectors and pEGFP-N1 were co-transfected into HEK293T cells using TurboFect in vitro Transfection Reagent (Thermo Scientific, Waltham, MA, USA) according to the manufacturer’s instructions. The potassium currents were recorded after transfection for 1 to 3 days.
as §3

Data set [5] addresses T5, hKv1.2-T383V (Homo sapiens, UniProt P16389, T383V).
T5 construct: expressed in transfected cells; host or cells: HEK293T
Briefly: Whole-cell patch clamp, hKv1.2 channel mutant T383V. The note with it: 100 nM peptide, HEK293T, mean ± S.E., n ≥ 3, SEM. Here is the method:
as §5, §6, §3

For data set [6], the target named is T6, hKv1.2-M3 chimeric channel (Homo sapiens, UniProt P16389, T383V/V381Y).
T6 construct: expressed in transfected cells; host or cells: HEK293T
T6 sequence (P16389 whole entry V381Y/T383V): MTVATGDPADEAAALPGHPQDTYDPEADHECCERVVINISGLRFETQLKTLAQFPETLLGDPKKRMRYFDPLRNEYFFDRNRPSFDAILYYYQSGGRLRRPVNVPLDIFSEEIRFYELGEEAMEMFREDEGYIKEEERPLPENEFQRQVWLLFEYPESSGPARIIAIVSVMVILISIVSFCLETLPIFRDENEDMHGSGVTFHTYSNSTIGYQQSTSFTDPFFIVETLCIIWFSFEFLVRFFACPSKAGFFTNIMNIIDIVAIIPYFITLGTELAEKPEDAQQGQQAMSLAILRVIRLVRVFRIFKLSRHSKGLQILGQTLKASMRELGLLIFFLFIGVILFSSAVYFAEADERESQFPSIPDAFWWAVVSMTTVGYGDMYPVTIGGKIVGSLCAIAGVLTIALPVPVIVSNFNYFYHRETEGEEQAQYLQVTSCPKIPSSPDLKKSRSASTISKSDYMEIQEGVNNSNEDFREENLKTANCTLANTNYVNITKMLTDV
Put plainly: Whole-cell patch clamp, chimeric channel hKv1.2-M3 (turret or filter region of hKv1.2 substituted by that of hKv1.1). Particulars: 100 nM peptide, HEK293T, mean ± S.E., n ≥ 3, SEM.
From the text: The turret and filter region of potassium channels have different effects on the toxin binding for different scorpion toxins. To investigate the importance of these two regions of potassium channels in interacting with BmK86-P1, another two channel chimeras (i.e., hKv1.2-M2 and hKv1.2-M3) were constructed, in which the turret or the filter region of the hKv1.2 channel was substituted by the equivalent region of the hKv1.1 channel.
as §6
The channel currents were measured and recorded by whole-cell patch clamp technology according to previously published references. The internal patch pipette solution and the bath solution were prepared as previously described. […] The channel currents were recorded at room temperature (~25 °C) using an EPC 10 patch clamp amplifier. […]

Positions of bridges follow the written chain, without caps; N, C: chain ends. Residues, ends and D or L forms follow the SMILES beside them.

T1 sequence (Q12809 whole entry): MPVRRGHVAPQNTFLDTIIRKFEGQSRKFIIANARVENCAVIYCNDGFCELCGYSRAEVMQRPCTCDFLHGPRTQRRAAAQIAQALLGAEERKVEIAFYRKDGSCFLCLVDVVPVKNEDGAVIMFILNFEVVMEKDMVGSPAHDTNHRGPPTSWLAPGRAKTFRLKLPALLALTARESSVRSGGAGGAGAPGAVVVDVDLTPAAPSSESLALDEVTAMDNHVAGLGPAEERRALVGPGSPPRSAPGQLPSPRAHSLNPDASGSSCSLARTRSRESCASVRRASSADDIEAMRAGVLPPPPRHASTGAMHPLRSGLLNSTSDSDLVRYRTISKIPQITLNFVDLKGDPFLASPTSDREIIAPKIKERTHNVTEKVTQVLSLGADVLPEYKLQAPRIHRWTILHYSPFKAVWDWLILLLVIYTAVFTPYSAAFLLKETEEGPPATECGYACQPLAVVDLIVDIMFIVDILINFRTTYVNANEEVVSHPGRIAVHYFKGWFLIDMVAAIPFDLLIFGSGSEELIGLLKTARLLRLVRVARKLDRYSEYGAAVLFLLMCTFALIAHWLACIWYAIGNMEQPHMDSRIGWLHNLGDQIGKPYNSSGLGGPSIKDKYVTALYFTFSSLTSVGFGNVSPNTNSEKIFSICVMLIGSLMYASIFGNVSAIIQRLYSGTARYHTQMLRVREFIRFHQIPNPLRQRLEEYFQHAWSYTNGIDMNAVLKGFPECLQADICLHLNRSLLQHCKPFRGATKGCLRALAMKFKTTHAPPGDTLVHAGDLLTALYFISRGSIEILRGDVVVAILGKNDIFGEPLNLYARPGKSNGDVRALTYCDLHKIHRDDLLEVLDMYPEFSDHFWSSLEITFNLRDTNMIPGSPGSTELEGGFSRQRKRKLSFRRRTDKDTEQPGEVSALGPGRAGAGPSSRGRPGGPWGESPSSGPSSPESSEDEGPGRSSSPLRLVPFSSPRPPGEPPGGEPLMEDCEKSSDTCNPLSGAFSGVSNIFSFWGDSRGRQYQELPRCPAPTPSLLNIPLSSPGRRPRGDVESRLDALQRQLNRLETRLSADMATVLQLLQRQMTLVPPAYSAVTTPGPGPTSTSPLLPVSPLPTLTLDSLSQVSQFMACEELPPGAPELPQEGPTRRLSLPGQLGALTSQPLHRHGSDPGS
T4 sequence (P16389 whole entry R354A): as the sequence (P16389 whole entry V381Y/T383V) above, with R354A, Y381V, V383T counted along it
T5 sequence (P16389 whole entry T383V): as the sequence (P16389 whole entry V381Y/T383V) above, with Y381V counted along it

On to `CC[C@H](C)[C@@H]1NC(=O)[C@@H]2CSSC[C@H](NC(=O)[C@H](C)N)C(=O)N[C@@H](CO)C(=O)N[C@@H](CCCCN)C(=O)N3CCC[C@H]3C(=O)N[C@H]3CSSC[C@H](NC(=O)[C@H](CCCNC(=N)N)NC(=O)CNC(=O)[C@H](CC(N)=O)NC1=O)C(=O)N[C@@H](Cc1c[nH]cn1)C(=O)N[C@H](C(=O)N[C@@H](Cc1ccc(O)cc1)C(=O)N[C@@H](Cc1ccc(O)cc1)C(=O)O)CSSC[C@H](NC(=O)[C@H](Cc1ccc(O)cc1)NC(=O)[C@H](CCCCN)NC(=O)[C@H](CCCNC(=N)N)NC3=O)C(=O)N[C@@H]([C@@H](C)CC)C(=O)N[C@@H](CC(=O)O)C(=O)N[C@@H](CCCCN)C(=O)NCC(=O)N[C@@H](C)C(=O)N[C@@H](CCCNC(=N)N)C(=O)N[C@@H](CC(N)=O)C(=O)NCC(=O)N[C@@H](CCCCN)C(=O)N2` [BmK86-P1] (H-ACSKPCRKYCIDKGARNGKCINGRCHCYY-OH; disulfide 2-20, 6-25, 10-27 (inferred); N-terminus and C-terminus assumed), for which the “inhibition of hERG channel currents” value in data set [1] is recorded as 13.3 ± 3.3%. For the same molecule, the “inhibition of hKv3.2 channel currents” value in data set [2] was determined as 3.8 ± 0.7%. In addition, the “inhibition of hKv1.1 channel currents” value in data set [3] (100 nM peptide) came out at 0.7 ± 0.1%; in data set [3] (1 μM peptide, room temperature (~25 °C)) it was 4.4 ± 2.6%. Moreover, the “inhibition of hKv1.2-R354A channel currents” value in data set [4] is 73.3 ± 1.3%. Moreover, the “inhibition of hKv1.2-T383V channel currents” value in data set [5] came to 32.1 ± 2.8%. The “inhibition of hKv1.2-M3 chimeric channel currents” value in data set [6] stood at 1.5 ± 0.6%.
